Measured values reported in ChEMBL document CHEMBL1130599, “Novel protein kinase C inhibitors: alpha-terthiophene derivatives” (Bioorg Med Chem Lett, 1998).

Assay: Inhibition of protein kinase C(1:1mixture of PKC alpha & beta) expressed in Sf9 insect cells
Assay type: cell-based

Structure (SMILES)	IC50 [µM]
CN1CCN(CCCN2c3ccccc3Sc3ccc(C(F)(F)F)cc32)CC1 [TRIFLUOPERAZINE]	500
O=Cc1ccc(-c2ccc(-c3ccc(CO)s3)s2)s1	0.7
O=Cc1ccc(-c2cccs2)s1	700
c1csc(-c2ccc(-c3cccs3)s2)c1	10
O=Cc1cccs1 [2-THIOPHENENECARBOXALDEHYDE]	> 4000
O=Cc1ccc(-c2ccc(-c3cccs3)s2)s1	0.7
OCc1ccc(-c2ccc(-c3cccs3)s2)s1	4
N#Cc1ccc(-c2ccc(-c3cccs3)s2)s1	2
O=Cc1ccc(-c2ccc(-c3ccc(C=O)s3)s2)s1	0.3
NCc1ccc(-c2ccc(-c3cccs3)s2)s1	7
